Measured values: patent publication US6613734B2, “Peptides-containing liposomal surfactants” (The Scripps Research Institute, priority 1988, dated 2003)
Several values for one entry are separate records, joined by “and”; a condition that tells them apart may be missing. Identical values can stand only once. Marks after values point to notes of the source that are not given here.

Experiments:
[1] = pulsating bubble technique ("bubble assay" of Enhorning, Enhorning Surfactometer); assay type: physicochemical; settings: peptide 10% by weight of PL, 37° C., negative pressure, mean of 3; for Pressure Gradient 15″: 15 seconds; for Pressure Gradient 1′: 1 minute; for Pressure Gradient 5′: 5 minutes
Protocol: Measurements of surface pressure across an air-liquid interface (expressed in negative cm of H2O pressure) at minimal (γmin) bubble radius were determined at various times using the pulsating bubble technique described by Enhorning, J. Appl. Physiol. 43: 198-203 (1977).
Briefly, the Enhorning Surfactometer (Surfactometer International, Toronto, Ontario) measures the pressure gradient (ΔP) across a liquid-air interface of a bubble that pulsates at a rate of 20 cycles/min between a maximal (0.55 mm) and minimal (0.4 mm) radius. The bubble, formed in a 37° C., water-enclosed, 20-μl sample chamber, is monitored through a microscopic optic while the pressure changes are recorded on a strip chart recorder calibrated for 0 and −2 cm H2O.
Each of the surfactants identified in Table 5 was assayed for surfactant activity as evidenced by their ability to reduce surface tension in vitro using the “bubble assay” of Enhorning as described above.
After admixture with solvent, each peptide was admixed with phospholipids (PL), DPPC:PG, 3:1, in chloroform in a glass tube so that the amount of polypeptide added equaled one-tenth (10% by. weight) of the amount of PL added, to form a surfactant according to either method A, B or C.
Each of the surfactants was then assayed for surfactant activity as evidenced by their ability to reduce surface tension in vitro in the bubble assay performed as described above. The pressure gradient (ΔP) is a measure of surfactant activity in the polypeptide-PL third admixture which was determined using an Enhorning Surfactometer as described above. Measurements were obtained at time points of 15 seconds (15″), 1 minute (1′) and 5 minutes (5′) and are expressed as a mean of three independent measurements of the indicated polypeptide-PL admixture.

fetal rabbit lung [2] = experiment: static compliance, fetal rabbit model; assay type: in vivo; settings: fetal rabbits, after 30 minutes of ventilation, instillation protocols 1 and 5 (FIGS. 2 and 3)
Protocol: A subject polypeptide was first admixed with solvent as described in Example 3. The resulting admixture was further admixed with phospholipid (PL) so that the amount of polypeptide added was either 3%, 7% or 10% by weight of the amount of PL added as indicated below.
Fetal rabbits were treated by injection into the trachea of a 0.1 ml solution that contained either a synthetic surfactant prepared in Example 4A or either 2 mg of native surfactant prepared as described in Example 1 of U.S. Pat. No. 5,260,273 (incorporated by reference herein) or 2 mg PL.
Fetal rabbits were treated by injection into the trachea from a single syringe the following four components such that the four components exit the syringe upon injection in the order listed: (1) 0.2 ml solution that contains either a synthetic surfactant prepared in Example 4A or either 4 mg of native surfactant, or 4 mg PL; (2) a 0.15 ml volume of air; (3) a 0.1 ml normal saline solution; and (4) a 0.3 ml volume of air. The above injection was then repeated 15 minutes after the first injection. […]
Static compliance measurements were made after 30 minutes of ventilation. […] The volume of air required to reach static pressures of 5, 10, 15, 20, 25 and 30 cm H2O was measured during both inflation and deflation phases to generate static pressure to volume curves as a measure of static compliance.

[3] = observation whether peptide/solvent admixture formed a solution or a suspension; assay type: physicochemical
Protocol: Each polypeptide was admixed with the indicated solvent at a concentration of 2.5 mg of polypeptide per ml of solvent. […] Those admixtures forming a suspension were further admixed by water bath sonication for 10 seconds to form a very fine suspension, sufficient for pipetting using glass pipettes.

fetal rabbit lung [4] = experiment: dynamic compliance, fetal rabbit model; assay type: in vivo; settings: single animal per line
Protocol: A subject polypeptide was first admixed with solvent as described in Example 3. […]
Surfactant was instilled in rabbit fetal lung by injection into the trachea from a single syringe of the following three components such that the components exit the syringe in the following order: (1) 0.05 ml air; (2) 0.1 ml of a synthetic surfactant prepared in Example 4A or either 2 mg of PL or 2 mg of native surfactant; and (3) 0.1 ml air.
From one syringe, a 0.1 ml aliquot of synthetic surfactant prepared as described in Example 4A (or 2 mg of NS or of PL), was instilled into the rabbit trachea as described above, followed by injection of 0.05 ml lactated Ringer's Solution and 0.2 ml air from a second syringe.
From one syringe, 0.1 ml of a synthetic surfactant prepared as described in Example 4A (or 2 mg of NS or of PL), 0.15 ml air, 0.1 ml saline, and 0.3 ml air were injected into the trachea as described above. Two subsequent aliquots of 0.3 ml air were given.
The surfactant activity of exemplary polypeptides of this invention was studied using the methods described in detail previously by Revak, et al, Am. Rev. Respir. Dis. 134: […] (1986), with the exceptions noted hereinbelow.
Twenty-seven day gestation fetal rabbits were delivered by hysterotomy and immediately injected with 0.05 ml Norcuron (Organon, Inc., N.J.) to prevent spontaneous breathing. The fetal rabbits were then weighed and a small cannula was inserted into the trachea by tracheotomy surfactant prepared as described above was then instilled into the fetal rabbit lung by one of the above instillation protocols.
Following instillation the rabbit was placed in a specially designed plethysmograph (containing a Celesco transducer) connected to a ventilator (Baby Bird, Baby Bird Corp., Palm Springs, Calif.) and the instilled lung was ventilated at a rate of 30 cycles per minute with a peak inspiratory pressure of 25 cm H2O, a positive end expiratory pressure of 4 cm H2O and an inspiratory time of 0.5 seconds. In some studies, dynamic compliance measurements were made at various times throughout the ventilation procedure. In others, static compliance measurements were made following ventilation.
Using the plethysmograph, dynamic compliance measurements were made at various times throughout a 60 minute ventilation period. […] Compliance was calculated by the formula below. [formula]
The above equation was solved with a multiple linear regression for C and R. The compliance (C) represents the elastic nature of the lungs and the resistance (R) represents the pressure necessary to overcome the resistance to the flow of gas into and out of the lungs.

Sequence	Pressure Gradient 15″ ([1]; PL (DPPC:PG 3:1) 4 mg/ml)	Pressure Gradient 1′ ([1]; PL (DPPC:PG 3:1) 4 mg/ml)	Pressure Gradient 5′ ([1]; PL (DPPC:PG 3:1) 4 mg/ml)	Pressure Gradient 15″ ([1]; PL (DPPC:PG 3:1) 10 mg/ml)	Pressure Gradient 1′ ([1]; PL (DPPC:PG 3:1) 10 mg/ml)	Pressure Gradient 5′ ([1]; PL (DPPC:PG 3:1) 10 mg/ml)	Dynamic Compliance, 30 minutes after surfactant instillation (fetal rabbit lung [4]; 5% peptide to PL, Protocol 3)	Dynamic Compliance, 60 minutes after surfactant instillation (fetal rabbit lung [4]; 5% peptide to PL, Protocol 3)	Dynamic Compliance, 30 minutes after surfactant instillation (fetal rabbit lung [4]; 10% peptide to PL, Protocol 2)	Dynamic Compliance, 60 minutes after surfactant instillation (fetal rabbit lung [4]; 10% peptide to PL, Protocol 2)	further results
FPIPLPYCWLCRALI [p1-15]	0.94 cm of H2O	0.82 cm of H2O	0.48 cm of H2O	–	–	–	–	–	–	–	lung compliance measured by static compliance, compared with PL alone (fetal rabbit lung [2]): did not produce improved lung compliance over PL alone; Admixture Formed ([3]; 2.5 μg of peptide per μl of solvent, solvent n-propyl alcohol): suspension; Admixture Formed ([3]; 2.5 mg of polypeptide per ml of solvent, solvent N-propanol): suspension
ERYSVILLDTLLGRMLPQLVCRLVLR [p51-76]	–	–	–	0.99 cm of H2O	0.91 cm of H2O	0.42 cm of H2O	–	–	–	–	Admixture Formed ([3]; 2.5 mg of polypeptide per ml of solvent, solvent 37% chloroform 63% methanol): solution; Dynamic Compliance, 10 minutes after surfactant instillation (fetal rabbit lung [4]; 10% peptide to PL, Protocol 4): 33 ml air/cm H2O (g body weight × 10^6) and 10 ml air/cm H2O (g body weight × 10^6) and 15 ml air/cm H2O (g body weight × 10^6); Dynamic Compliance, 20 minutes after surfactant instillation (fetal rabbit lung [4]; 10% peptide to PL, Protocol 4): 22 ml air/cm H2O (g body weight × 10^6) and 11 ml air/cm H2O (g body weight × 10^6) and 36 ml air/cm H2O (g body weight × 10^6); Dynamic Compliance, 30 minutes after surfactant instillation (fetal rabbit lung [4]; 10% peptide to PL, Protocol 4): 56 ml air/cm H2O (g body weight × 10^6) and 186 ml air/cm H2O (g body weight × 10^6) and 109 ml air/cm H2O (g body weight × 10^6); Dynamic Compliance, 40 minutes after surfactant instillation (fetal rabbit lung [4]; 10% peptide to PL, Protocol 4): 87 ml air/cm H2O (g body weight × 10^6) and 358 ml air/cm H2O (g body weight × 10^6) and 241 ml air/cm H2O (g body weight × 10^6); Dynamic Compliance, 50 minutes after surfactant instillation (fetal rabbit lung [4]; 10% peptide to PL, Protocol 4): 124 ml air/cm H2O (g body weight × 10^6) and 141 ml air/cm H2O (g body weight × 10^6) and 264 ml air/cm H2O (g body weight × 10^6); Dynamic Compliance, 60 minutes after surfactant instillation (fetal rabbit lung [4]; 10% peptide to PL, Protocol 4): 85 ml air/cm H2O (g body weight × 10^6) and 144* ml air/cm H2O (g body weight × 10^6) and 301 ml air/cm H2O (g body weight × 10^6)
RVVPLVAGGICQCLAERYSVILLDTLLGRMLPQLVCRLVLRCSMDD [p36-81]	–	–	–	0.90 cm of H2O	0.87 cm of H2O	0.79 cm of H2O	255 ml air/cm H2O (g body weight × 10^6) and 245 ml air/cm H2O (g body weight × 10^6)	146* ml air/cm H2O (g body weight × 10^6) and 291 ml air/cm H2O (g body weight × 10^6)	154 ml air/cm H2O (g body weight × 10^6) and 252 ml air/cm H2O (g body weight × 10^6)	1,162 ml air/cm H2O (g body weight × 10^6) and 623 ml air/cm H2O (g body weight × 10^6)	Admixture Formed ([3]; 2.5 mg of polypeptide per ml of solvent, solvent 50% chloroform 0% methanol): suspension
RYSVILLDTLLGRMLPQLVCRLVLRCSMDD [p52-81]	1.33 cm of H2O	1.19 cm of H2O	0.96 cm of H2O	–	–	–	517 ml air/cm H2O (g body weight × 10^6) and 434 ml air/cm H2O (g body weight × 10^6)	226* ml air/cm H2O (g body weight × 10^6) and 55* ml air/cm H2O (g body weight × 10^6)	195 ml air/cm H2O (g body weight × 10^6) and 43 ml air/cm H2O (g body weight × 10^6)	1,243 ml air/cm H2O (g body weight × 10^6) and 1,690 ml air/cm H2O (g body weight × 10^6)	Admixture Formed ([3]; 2.5 μg of peptide per μl of solvent, solvent methanol:H2O): suspension; Admixture Formed ([3]; 2.5 mg of polypeptide per ml of solvent, solvent 67% DMF 33% chloroform): solution
